Experiments:
Adrenergic β2 = molecular target: T1, Adrenergic β2 (Homo sapiens, UniProt P07550); assay: Adrenergic β2 mediated cAMP production in H292 cells (AlphaScreen), concentration response; assay type: cell-based; details: for EC50: 60 min, 300 μM rolipram, read-out: β2 pEC50 (converted); for β2 Intrinsic Activity: fraction relative to the maximum activity determined for formoterol
T1 construct: Adherent H292 cells are removed from tissue culture flasks by treatment with Accutase™ cell detachment solution; endogenous in cells; host or cells: H292 cells
Description: Assay for Adrenergic 132 Mediated cAMP Production
H292 cells are grown in 225 cm2 flasks incubator at 37° C., 5% CO2 in RPMI medium containing 10% (v/v) FBS (foetal bovine serum) and 2 mM L-glutamine.
Adherent H292 cells re removed from tissue culture flasks by treatment with Accutase™ cell detachment solution for 15 minutes. Flasks are incubated for 15 minutes in a humidified incubator at 37° C., 5% CO2. Detached cells are re-suspended in RPMI media (containing 10% (v/v) FBS and 2 mM L-glutamine) at 0.1×10^6 cells per mL. 10000 cells in 100 μl, are added to each well of a tissue-culture-treated 96-well plate and the cells incubated overnight in a humidified incubator at 37° C., 5% CO2. The culture media is removed and cells are washed twice with 100 μL assay buffer and replaced with 50 μl assay buffer (HBSS solution containing 10 mM HEPES pH7.4 and 5 mM glucose). Cells are rested at room temperature for 20 minutes after which time 25 μl of rolipram (1.2 mM made up in assay buffer containing 2.4% (v/v) dimethylsulphoxide) is added. Cells are incubated with rolipram for 10 minutes after which time test compounds are added and the cells are incubated for 60 minutes at room temperature. The final rolipram concentration in the assay is 300 μM and final vehicle concentration is 1% (v/v) dimethylsulphoxide. The reaction is stopped by removing supernatants, washing once with 100 μL assay buffer and replacing with 50 μL lysis buffer. The cell monolayer is frozen at −80° C. for 30 minutes (or overnight).
AlphaScreen™ cAMP detection
The concentration of cAMP (cyclic adenosine monophosphate) in the cell lysate is determined using AlphaScreen™ methodology. The frozen cell plate is thawed for 20 minutes on a plate shaker then 10 μL of the cell lysate is transferred to a 96-well white plate. 40 μL of mixed AlphaScreen™ detection beads pre-incubated with biotinylated cAMP, is added to each well and the plate incubated at room temperature for 3 hours in the dark. The AlphaScreen™ signal is measured using an EnVision spectrophotometer (Perkin-Elmer Inc.) with the recommended manufacturer's settings. cAMP concentrations are determined by reference to a calibration curve determined in the same experiment using standard cAMP concentrations. Concentration response curves for agonists are constructed and data is fitted to a four parameter logistic equation to determine both the pEC50 and Intrinsic Activity. Intrinsic Activity is expressed as a fraction relative to the maximum activity determined for formoterol in each experiment.

[1] = molecular target: T2, human muscarinic acetylcholine M3 receptor (Homo sapiens, UniProt P20309); assay: Muscarinic 3 receptor binding assay ([3H]NMS competition, SPA), pIC50; details: [3H]NMS 0.1 nM, CHO-K1 cell membranes expressing human M3 receptor
T2 construct: expressed in transfected cells; host or cells: CHO-K1 (Chinese Hamster Ovary) cell membranes
Description: Muscarinic 3 Receptor Binding Assay
The affinity (pIC50) of compounds binding to the M3 receptor is determined by competition binding of [^3H]N-methyl scopolamine (NMS) to CHO-K1 (Chinese Hamster Ovary) cell membranes expressing the human muscarinic acetylcholine M3 receptor (M3-ACh) in a scintillation proximity assay (SPA) format.
SPA beads are precoated with membranes and then incubated at 2 mg of beads per well with serial dilutions of compounds of the invention, [^3H]NMS at 0.1 nM, quarter Kd (experimentally determined dissociation constant) and assay buffer (20 mM HEPES pH 7.4 containing 5 mM MgCl2 and 0.1% (w/v) bovine serum albumin). The assay is conducted in a final volume of 200 μL, in the presence of 1% (v/v) dimethyl sulphoxide (DMSO). Total binding of [^3H]NMS is determined in the absence of competing compound and non-specific binding of [^3H]NMS is determined in the presence of 1 μM atropine. The plates are incubated for 16 hours at room temperature and then read on Wallac Microbeta™ using a normalised ^3H protocol. The pIC50, defined as the negative logarithm of the molar concentration of compound required for 50% reduction in specific [^3H]-NMS binding, is determined.

T1 sequence (P07550 whole entry): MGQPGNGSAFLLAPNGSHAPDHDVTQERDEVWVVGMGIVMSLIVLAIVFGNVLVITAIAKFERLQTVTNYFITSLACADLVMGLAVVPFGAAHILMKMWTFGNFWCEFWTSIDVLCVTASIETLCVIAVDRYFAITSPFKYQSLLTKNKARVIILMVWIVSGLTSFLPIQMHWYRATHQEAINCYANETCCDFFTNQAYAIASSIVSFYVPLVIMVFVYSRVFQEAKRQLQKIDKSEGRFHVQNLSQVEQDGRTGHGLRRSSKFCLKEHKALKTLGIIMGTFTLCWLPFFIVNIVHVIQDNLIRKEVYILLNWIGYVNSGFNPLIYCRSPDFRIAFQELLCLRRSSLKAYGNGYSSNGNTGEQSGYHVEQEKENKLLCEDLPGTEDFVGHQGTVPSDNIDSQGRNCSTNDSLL
T2 sequence (P20309 whole entry): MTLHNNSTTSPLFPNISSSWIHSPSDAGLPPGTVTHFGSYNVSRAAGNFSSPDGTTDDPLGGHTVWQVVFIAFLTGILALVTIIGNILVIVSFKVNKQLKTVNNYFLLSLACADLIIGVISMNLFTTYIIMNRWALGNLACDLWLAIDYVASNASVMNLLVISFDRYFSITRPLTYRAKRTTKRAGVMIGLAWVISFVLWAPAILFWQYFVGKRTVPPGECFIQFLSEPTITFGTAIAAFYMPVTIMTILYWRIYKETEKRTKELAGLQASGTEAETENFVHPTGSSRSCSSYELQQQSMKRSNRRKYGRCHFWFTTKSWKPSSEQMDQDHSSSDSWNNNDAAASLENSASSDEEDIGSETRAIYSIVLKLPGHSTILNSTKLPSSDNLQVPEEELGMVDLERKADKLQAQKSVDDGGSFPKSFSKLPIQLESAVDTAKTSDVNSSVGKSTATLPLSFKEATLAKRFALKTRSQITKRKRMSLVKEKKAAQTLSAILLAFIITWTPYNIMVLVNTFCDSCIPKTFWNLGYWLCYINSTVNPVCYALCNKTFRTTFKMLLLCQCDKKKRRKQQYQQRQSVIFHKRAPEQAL

## CCN(CCNCCc1ccc(O)c2[nH]c(=O)sc12)C(=O)CCOCCc1ccc(F)c(CN2CCC3(CC2)CN(C(=O)c2csc(C(C)C)n2)CCO3)c1 [Example 44, N-Ethyl-3-(4-fluoro-3-((4-(2-isopropylthiazole-4-carbonyl)-1-oxa-4,9-diazaspiro[5.5]undecan-9-yl)methyl)phenethoxy)-N-(2-(2-(4-hydroxy-2-oxo-2,3-dihydrobenzo[d]thiazol-7-yl)ethylamino)ethyl)propanamide]
Adrenergic β2
  EC50: 501 nM
  β2 Intrinsic Activity: 1.1
[1]
  IC50: 0.501 nM

## CC(C)c1nc(C(=O)N2CCOC3(CCN(CCc4ccc(CCOCCC(=O)N(CCNCCc5ccc(O)c6c5OCC(=O)N6)C5CCCCC5)cc4)CC3)C2)cs1 [Example 2, N-Cyclohexyl-N-(2-(2-(5-hydroxy-3-oxo-3,4-dihydro-2H-benzo[b][1,4]oxazin-8-yl)ethylamino)ethyl)-3-(4-(2-(4-(2-Isopropylthiazole-4-carbonyl)-1-oxa-4,9-diazaspiro[5.5]undecan-9-371)ethyl)phenethoxy)propanamide ditrifluoroacetate]
Adrenergic β2
  EC50: 31.6 nM
  β2 Intrinsic Activity: 0.9
[1]
  IC50: 1 nM

## CC(C)c1nc(C(=O)N2CCOC3(CCN(Cc4cccc(CCOCCC(=O)N(CCNCCc5ccc(O)c6c5OCC(=O)N6)Cc5ccccc5)c4F)CC3)C2)cs1 [Example 8, N-Benzyl-3-(2-fluoro-3-((4-(2-isopropylthiazole-4-carbonyl)-1-oxa-4,9-diazaspiro[5.5]undecan-9-yl)methyl)phenethoxy)-N-(2-(2-(5-hydroxy-3-oxo-3,4-dihydro-2H-benzo[b][1,4]oxazin-8-yl)ethylamino)ethyl)propanamide ditrifluoroacetate]
Adrenergic β2
  EC50: 39.8 nM
  β2 Intrinsic Activity: 1.1
[1]
  IC50: 0.251 nM

## CC(C)c1nc(C(=O)N2CCOC3(CCN(CCc4cccc(CCOCCC(=O)N(CCNCCc5ccc(O)c6c5OCC(=O)N6)C5CCCCC5)c4)CC3)C2)cs1 [Example 36, N-Cyclohexyl-N-(2-(2-(5-hydroxy-3-oxo-3,4-dihydro-2H-benzo[b][1,4]oxazin-8-yl)ethylamino)ethyl)-3-(3-(2-(4-(2-isopropylthiazole-4-carbonyl)-1-oxa-4,9-diazaspiro[5.5]undecan-9-yl)ethyl)phenethoxy)propanamide ditrifluoroacetate]
Adrenergic β2
  EC50: 12.6 nM
  β2 Intrinsic Activity: 1.0
[1]
  IC50: 2.51 nM

## CCN(CCNCCc1ccc(O)c2[nH]c(=O)sc12)C(=O)CCOCCc1csc(CN2CCC3(CC2)CN(C(=O)c2csc(C(C)C)n2)CCO3)c1 [Example 48, N-Ethyl-N-(2-(2-(4-hydroxy-2-oxo-2,3-dihydrobenzo[d]thiazol-7-yl)ethylamino)ethyl)-3-(2-(5-((4-(2-isopropylthiazole-4-carbonyl)-1-oxa-4,9-diazaspiro[5.5]undecan-9-yl)methyl)thiophen-3-yl)ethoxy)propanamide ditrifluoroacetate]
Adrenergic β2
  EC50: 200 nM
  β2 Intrinsic Activity: 0.9
[1]
  IC50: 0.2 nM

## CCc1nc(C(=O)N2CCOC3(CCN(Cc4cccc(CCOCCC(=O)N(CCNCCc5ccc(O)c6c5OCC(=O)N6)C5CCCCC5)c4)CC3)C2)cs1 [Example 95, N-Cyclohexyl-3-(3-((4-(2-ethylthiazole-4-carbonyl)-1-oxa-4,9-diazaspiro[5.5]undecan-9-yl)methyl)phenethoxy)-N-(2-(2-(5-hydroxy-3-oxo-3,4-dihydro-2H-benzo[b][1,4]oxazin-8-yl)ethylamino)ethyl)propanamide]
Adrenergic β2
  EC50: 100 nM
  β2 Intrinsic Activity: 1.0
[1]
  IC50: 0.126 nM

## CC(C)c1cc(C(=O)N2CCOC3(CCN(Cc4cccc(CCOCCC(=O)N(CCNCCc5ccc(O)c6c5OCC(=O)N6)C5CCCCC5)c4)CC3)C2)cs1 [Example 91, N-Cyclohexyl-N-(2-(2-(5-hydroxy-3-oxo-3,4-dihydro-2H-benzo[b][1,4]oxazin-8-yl)ethylamino)ethyl)-3-(3-((4-(5-isopropylthiophene-3-carbonyl)-1-oxa-4,9-diazaspiro[5.5]undecan-9-yl)methyl)phenethoxy)propanamide]
Adrenergic β2
  EC50: 251 nM
  β2 Intrinsic Activity: 1.2
[1]
  IC50: 0.2 nM

## CCCC[C@@H](C)N(CCNCCc1ccc(O)c2c1OCC(=O)N2)C(=O)CCOCCc1cccc(CN2CCC3(CC2)CN(C(=O)c2csc(C(C)C)n2)CCO3)c1F [Example 18, (R)-3-(2-Fluoro-3-((4-(2-isopropylthiazole-4-carbonyl)-1-oxa-4,9-diazaspiro[5.5]undecan-9-yl)methyl)phenethoxy)-N-(hexan-2-yl)-N-(2-(2-(5-hydroxy-3-oxo-3,4-dihydro-2H-benzo[b][1,4]oxazin-8-yl)ethylamino)ethyl)propanamide ditrifluoroacetate]
Adrenergic β2
  EC50: 20 nM
  β2 Intrinsic Activity: 1.0
[1]
  IC50: 0.398 nM

## CC(C)c1nc(C(=O)N2CCOC3(CCN(Cc4cccc(CCOCCC(=O)N(CCNCCc5ccc(O)c6c5OCC(=O)N6)C5CCCCC5)c4Cl)CC3)C2)cs1 [Example 27, 3-(2-Chloro-3-((4-(2-isopropylthiazole-4-carbonyl)-1-oxa-4,9-diazaspiro[5.5]undecan-9-yl)methyl)phenethoxy)-N-cyclohexyl-N-(2-(2-(5-hydroxy-3-oxo-3,4-dihydro-2H-benzo[b][1,4]oxazin-8-yl)ethylamine)ethyl)propanamide ditrifluoroacetate]
Adrenergic β2
  EC50: 20 nM
  β2 Intrinsic Activity: 0.9
[1]
  IC50: 2 nM

## CCc1nc(C(=O)N2CCOC3(CCN(CCc4ccc(CCOCCC(=O)N(CCCCCCO)CCNCCc5ccc(O)c6[nH]c(=O)sc56)cc4)CC3)C2)cs1 [Example 76, 3-(4-(2-(4-(2-Ethylthiazole-4-carbonyl)-1-oxa-4,9-diazaspiro[5.5]undecan-9-yl)ethyl)phenethoxy)-N-(2-(2-(4-hydroxy-2-oxo-2,3-dihydrobenzo[d]thiazol-7-yl)ethylamino)ethyl)-N-(6-hydroxyhexyl)propanamide diformate]
Adrenergic β2
  EC50: 50.1 nM
  β2 Intrinsic Activity: 1.0
[1]
  IC50: 0.631 nM

## CCN(CCNCCc1ccc(O)c2c1OCC(=O)N2)C(=O)CCOCCc1cccc(CN2CCC3(CC2)CN(C(=O)c2csc(C4CCCC4)n2)CCO3)c1F [Example 25, 3-(3-((4-(2-Cyclopentylthiazole-4-carbonyl)-1-oxa-4,9-diazaspiro[5.5]undecan-9-yl)methyl)-2-fluorophenethoxy)-N-ethyl-N-(2-(2-(5-hydroxy-3-oxo-3,4-dihydro-2H-benzo[b][1,4]oxazin-8-yl)ethylamino)ethyl)propanamide ditrifluoroacetate]
Adrenergic β2
  EC50: 39.8 nM
  β2 Intrinsic Activity: 0.8
[1]
  IC50: 0.158 nM

## CC(C)c1nc(C(=O)N2CCOC3(CCN(Cc4cccc(SCCCOCCC(=O)N(CCNCCc5ccc(O)c6c5OCC(=O)N6)C5CCCC5)c4)CC3)C2)cs1 [Example 54, N-Cyclopentyl-N-(2-(2-(5-hydroxy-3-oxo-3,4-dihydro-2H-benzo[b][1,4]oxazin-8-yl)ethylamino)ethyl)-3-(3-(3-((4-(2-isopropylthiazole-4-carbonyl)-1-oxa-4,9-diazaspiro[5.5]undecan-9-yl)methyl)phenylthio)propoxy)propanamide ditrifluoroacetate]
Adrenergic β2
  EC50: 100 nM
  β2 Intrinsic Activity: 0.9
[1]
  IC50: 0.1 nM

Source: patent publication US8476265B2, “Compounds-801” (AstraZeneca AB, priority 2010, dated 2013)
